{"source": "ChEMBL document CHEMBL1201862", "about": "“PubChem BioAssay data set” (2004)", "key": {"HEK293": {"tested_on": "HEK293", "test": "optical interference in Abeta FP readout, dose response, artefact control for IDE activator project, biochemical, fluorescence polarization (AID 588442)", "assay_type": "functional, cell-based", "conditions": "Homo sapiens"}, "Streptokinase A": {"target": "T1, Streptokinase A (Streptococcus pyogenes serotype M1, UniProt P10520)", "T1 sequence (P10520 whole entry)": "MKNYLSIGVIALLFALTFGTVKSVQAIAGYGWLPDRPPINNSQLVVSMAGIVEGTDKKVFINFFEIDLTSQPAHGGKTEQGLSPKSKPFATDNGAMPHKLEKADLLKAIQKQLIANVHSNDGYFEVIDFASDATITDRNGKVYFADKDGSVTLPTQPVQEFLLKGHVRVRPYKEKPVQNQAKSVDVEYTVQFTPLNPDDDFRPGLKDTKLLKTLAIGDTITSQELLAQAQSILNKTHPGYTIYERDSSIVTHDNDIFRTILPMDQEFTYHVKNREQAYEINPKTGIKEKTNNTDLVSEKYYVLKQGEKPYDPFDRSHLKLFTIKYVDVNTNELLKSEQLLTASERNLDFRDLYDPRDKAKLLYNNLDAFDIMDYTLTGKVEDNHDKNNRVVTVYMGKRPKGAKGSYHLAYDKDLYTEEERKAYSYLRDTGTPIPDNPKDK", "test": "viability-normalized secreted streptokinase activity reduction – plasminogen activation absorbance, OD405, dose response (AID 1914);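 note: secreted streptokinase activity via plasminogen activation per viability signal from cell pellet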", "assay_type": "functional, Streptococcus pyogenes M1 GAS"}, "[1]": {"tested_on": "Streptococcus sp. 'group A'", "test": "Streptococcus pyogenes SK(-)GAS viability under kanamycin – luminescence, BacTiterGlo, confirmation, counter-screen for streptokinase expression inhibitor project, dose response (AID 1900)", "assay_type": "functional, organism-based"}, "[2]": {"test": "general mammalian cell viability loss – activator set, cherry-pick, cytotoxicity control for miR-122 modulator project, dose response (AID 720690);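 note: HEK293T human cells scored for general mammalian cytotoxicity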", "assay_type": "functional, cell-based"}, "[3]": {"target": "T2, Apoptotic protease-activating factor 1 (Homo sapiens, UniProt O14727)", "T2 sequence (O14727 whole entry)": "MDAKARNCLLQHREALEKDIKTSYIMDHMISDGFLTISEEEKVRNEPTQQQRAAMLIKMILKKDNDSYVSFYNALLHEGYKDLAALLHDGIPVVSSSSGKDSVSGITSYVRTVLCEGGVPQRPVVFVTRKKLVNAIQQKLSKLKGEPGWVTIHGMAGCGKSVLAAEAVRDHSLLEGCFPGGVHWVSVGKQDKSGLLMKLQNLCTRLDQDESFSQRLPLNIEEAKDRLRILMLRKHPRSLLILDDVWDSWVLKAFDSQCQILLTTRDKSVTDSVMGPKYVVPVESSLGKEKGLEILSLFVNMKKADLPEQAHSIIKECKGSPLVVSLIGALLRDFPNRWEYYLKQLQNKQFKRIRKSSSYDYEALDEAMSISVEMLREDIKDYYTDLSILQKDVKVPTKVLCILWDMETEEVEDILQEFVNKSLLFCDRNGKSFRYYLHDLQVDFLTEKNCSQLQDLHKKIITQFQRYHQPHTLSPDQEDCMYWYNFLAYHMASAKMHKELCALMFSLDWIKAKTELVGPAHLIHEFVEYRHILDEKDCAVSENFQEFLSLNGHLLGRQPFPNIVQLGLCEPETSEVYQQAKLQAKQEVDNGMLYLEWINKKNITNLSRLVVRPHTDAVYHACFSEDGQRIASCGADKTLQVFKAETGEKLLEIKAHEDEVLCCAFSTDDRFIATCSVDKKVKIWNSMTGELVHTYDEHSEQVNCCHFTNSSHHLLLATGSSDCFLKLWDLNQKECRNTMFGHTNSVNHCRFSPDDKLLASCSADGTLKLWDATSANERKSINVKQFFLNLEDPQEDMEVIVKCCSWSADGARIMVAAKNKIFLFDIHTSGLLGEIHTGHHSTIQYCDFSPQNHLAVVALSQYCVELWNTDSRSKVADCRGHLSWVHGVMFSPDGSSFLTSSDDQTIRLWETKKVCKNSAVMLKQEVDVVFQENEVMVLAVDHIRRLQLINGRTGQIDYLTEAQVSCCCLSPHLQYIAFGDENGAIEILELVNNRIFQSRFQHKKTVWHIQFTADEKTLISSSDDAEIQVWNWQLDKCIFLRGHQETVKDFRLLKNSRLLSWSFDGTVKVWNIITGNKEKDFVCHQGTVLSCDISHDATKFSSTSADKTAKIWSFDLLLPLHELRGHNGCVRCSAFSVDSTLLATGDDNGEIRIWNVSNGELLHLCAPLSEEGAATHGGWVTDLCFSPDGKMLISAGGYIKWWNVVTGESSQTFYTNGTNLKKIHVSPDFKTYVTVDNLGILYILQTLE", "assay_type": "functional"}, "Cytochrome P450 2C19": {"target": "Cytochrome P450 2C19 (Homo sapiens, UniProt P33261)", "sequence (P33261 whole entry)": "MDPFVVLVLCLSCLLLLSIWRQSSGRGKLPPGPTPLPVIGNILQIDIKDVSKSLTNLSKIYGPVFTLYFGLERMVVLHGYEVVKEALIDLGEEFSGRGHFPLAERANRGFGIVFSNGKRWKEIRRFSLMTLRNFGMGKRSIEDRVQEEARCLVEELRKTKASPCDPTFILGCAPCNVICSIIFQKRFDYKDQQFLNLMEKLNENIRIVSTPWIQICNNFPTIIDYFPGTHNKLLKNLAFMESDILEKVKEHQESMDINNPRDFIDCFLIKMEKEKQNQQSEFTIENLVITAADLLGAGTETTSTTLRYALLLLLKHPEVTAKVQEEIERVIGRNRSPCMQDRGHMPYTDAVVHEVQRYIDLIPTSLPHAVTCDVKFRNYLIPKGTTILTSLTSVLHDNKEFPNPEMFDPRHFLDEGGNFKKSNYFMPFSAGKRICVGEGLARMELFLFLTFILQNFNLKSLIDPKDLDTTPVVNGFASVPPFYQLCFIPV", "test": "Cytochrome panel assay with activity outcomes. Panel member name: p450-cyp2c19 Compounds with AC50 equal or less than 10 uM are considered active", "assay_type": "functional", "conditions": "read-out: AC50"}, "[4]": {"target": "Eukaryotic translation initiation factor 4E (Mus musculus, UniProt P63073)", "sequence (P63073 whole entry)": "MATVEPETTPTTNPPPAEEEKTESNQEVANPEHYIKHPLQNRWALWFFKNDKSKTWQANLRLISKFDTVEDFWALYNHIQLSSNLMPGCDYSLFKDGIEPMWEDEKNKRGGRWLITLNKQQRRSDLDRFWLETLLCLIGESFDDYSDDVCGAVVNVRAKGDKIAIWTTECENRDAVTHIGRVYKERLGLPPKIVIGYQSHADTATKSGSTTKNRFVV", "test": "blockers of eIF4G binding by eIF4E – biochemical, TR-FRET, dose response (AID 855);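 note: potency for disrupting eIF4E binding to eIF4GI seen as loss of FRET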", "assay_type": "functional"}, "[5]": {"target": "Bifunctional protein GlmU (Mycobacterium tuberculosis, UniProt P9WMN3)", "sequence (P9WMN3 whole entry)": "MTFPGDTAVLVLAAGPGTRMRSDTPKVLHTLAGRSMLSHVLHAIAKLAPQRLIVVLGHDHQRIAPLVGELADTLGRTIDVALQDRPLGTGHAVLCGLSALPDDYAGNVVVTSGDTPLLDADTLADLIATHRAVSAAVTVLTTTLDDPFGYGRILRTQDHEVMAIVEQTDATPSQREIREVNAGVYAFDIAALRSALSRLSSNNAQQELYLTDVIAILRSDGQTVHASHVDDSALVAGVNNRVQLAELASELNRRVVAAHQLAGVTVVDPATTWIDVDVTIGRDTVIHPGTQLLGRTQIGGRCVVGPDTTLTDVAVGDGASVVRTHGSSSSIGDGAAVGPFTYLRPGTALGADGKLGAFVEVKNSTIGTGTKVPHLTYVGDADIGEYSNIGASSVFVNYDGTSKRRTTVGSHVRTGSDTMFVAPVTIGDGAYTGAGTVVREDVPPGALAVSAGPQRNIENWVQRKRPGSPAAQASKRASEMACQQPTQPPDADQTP", "test": "Inhibitors of Mycobacterial Glucosamine-1-phosphate acetyl transferase (GlmU). Secondary screen.", "parameters": "species or system Mycobacterium tuberculosis H37Rv"}}, "note": "The source made the active and inactive calls."}
{"smiles": "O=C1CCN2C=Nc3cccc4ccc1c2c34", "values": [{"measurement": "EC50", "setting": "HEK293", "result": "17 µM (inactive)"}]}
{"smiles": "Oc1ccc2ccccc2c1/C=N/Nc1nnc(-c2ncc[nH]2)c2ccccc12", "values": [{"measurement": "EC50", "setting": "Streptokinase A", "result": "5.52 µM (active)"}, {"measurement": "EC50", "setting": "[1]", "result": "1.98 µM (active)"}, {"measurement": "AC50", "setting": "[2]", "result": "3.09 µM (active)"}]}
{"smiles": "CC(C)C(C(=O)O)N1C(=O)/C(=C/C=C/c2ccco2)SC1=S", "note": "(stereo not drawn)", "values": [{"measurement": "IC50", "setting": "[3]", "result": "> 100 µM (inactive)"}, {"measurement": "AC50", "setting": "Cytochrome P450 2C19", "result": "10 µM (inconclusive)"}, {"measurement": "IC50", "setting": "[4]", "result": "11.3 µM (active)"}, {"measurement": "IC50", "setting": "[5]", "result": "47.9 µM (active)"}]}
